# From patent publication US20250305982A1, “DEVICE AND METHOD FOR THE DETECTION OF BIOMARKERS ASSOCIATED WITH NEURODEGENERATIVE DISEASES” (CONSEJO NACIONAL DE INVESTIGACIONES CIENTÍFICAS Y TÉCNICAS …, priority 2022, published 2025)
# Legend:
# amyloid aggregates = conditions: González-Lizárraga (2017), Medina (2021); cited from earlier work
# fibrillar AS = molecular target: T1, fibrillar AS (Homo sapiens, UniProt P37840); experiment: Sandwich immunoassay, Doxy-5 adsorbed on polystyrene microplates; type: binding
# T1 construct: made in house; host or cells: E. coli BL21
# Protocol: The design is based on an immunoassay with a conventional sandwich system involving the capture of fibrillar species of AS by Doxy-5, followed by detection with two antibodies: an anti-human AS antibody, and an antibody conjugated to a peroxidase. Briefly, the compound of formula (II) is incubated in polystyrene microplates wherein it is adsorbed. After several rinses, to eliminate any non-adsorbed molecules, the system is incubated with a primary anti-human AS rabbit antibody. After rinsing, the system is then incubated with a secondary anti-rabbit antibody conjugated to peroxidase. The conjugated antibody reacts specifically with the primary antibodies which are bound to the immunocaptured AS. […] After incubating, a blue color develops, whose intensity depends on the concentration and the affinity of Doxy-5 to the AS species. The enzymatic reaction is stopped by the addition of sulfuric acid, which produces a color shift towards yellow which is spectrometrically quantifiable at 450 nm.
# (§1) The 96-well polystyrene plate was sensitized by incubation overnight a 4° C. and protected from light with 20 μg/mL of the compound of formula (II) in 20 mM sodium acetate pH 5 (50 μL/well). The plate was rinsed with PBST (PBS 10 mM pH 7.4+Tween-80 0.01%) and blocked with 150 μL/well of a 0.1% lysozyme solution in PBS 10 mM pH 7.4 during 1 h at 37° C. After rinsing, 50 μL of the samples with the analytes of interest prepared in 10 mM PBS pH 7.4 were added to each well, and the plate was incubated at 37° C. for 2 h. […] Immediately thereafter, the developed absorbance is measured with a TECAN Spark microplate reader.
# The focus of the immunoassay takes advantage of the generation of a colored compound by action of the peroxidase on the substrate (TMB), which is proportional to the concentration of the AS analytes captured by Doxy-5. The absorbance readings at 450 nm were acquired with a TECAN Spark microplate reader. […]
# Tau aggregates (PFF) = experiment: Immunoassay, Doxy-5 bound to BSA through glutaraldehyde on polystyrene microplate; type: binding; conditions: Taum 100 ng/ml, PFF 1/10000 dilution; Doxy-5 40 μg/ml; FIG. 6
# Protocol: The sensitization of the wells was carried out as follows: first, the binding sites of the microplate were blocked with albumin. Afterwards, compound of formula (II) was covalently linked to albumin by using glutaraldehyde as the linker.
# For this purpose, a 96-well polystyrene microplate was incubated with 150 μL/well of 1% bovine serum albumin (BSA) overnight at 4° C. in a humid chamber. Then, after three cycles of washing with PBST, 50 μL/well of glutaraldehyde at different concentrations (0.1%, 0.5% and 1%) were added to the wells and the plate was kept during specified times (either 10 minutes for every concentration, or 5 minutes for 0.5% and 1%) under a hood. Wells were then washed three times with PBS, and 50 μL/well of Doxy-5 (40 μg/ml) were added. The plate was then incubated at 37° C. for 30 minutes, protected from light. Afterwards, the wells were washed again with PBST, and 50 μL/well of 1M TRIS was added as a glutaraldehyde-inactivating agent. The microplate was then incubated at 37° C. for 30 minutes. […] To stop the reaction, 25 μL/well of 2N H2SO4 were added, and the microplate was immediately read on a microplate reader (Tecan Spark, Austria) at the wavelength of 450 nm.
# AS fibers = molecular target: T2, AS fibers (Homo sapiens, UniProt P37840); experiment: Cyclic voltammetry with gold biosensors modified with Doxy-5; type: binding
# T2 construct: made in house; host or cells: E. coli BL21
# Protocol: A comparative study for different crosslinking agents for the immobilization of Doxy-5 on gold conductive surfaces was performed. 3-mercaptopropionic acid (MPA), which is able to form self-assembled monolayers (SAM) on the substrate thus facilitating its functionalization, was used. Gold was chosen because it is inert for the molecule of interest. Additionally, the use of other agents such as 1-ethyl-3-(3-dimethylaminopropyl) carbodiimide hydrochloride (EDC) and N-hydroxysuccinimide (NHS), either for generating or activating present moieties, is necessary for the formation of covalent bonds with Doxy-5. Concentrations and incubation times were optimized in each modification stage of the gold surface.
# Cyclic voltammetry (CV) measurements were first carried out to characterize each of the immobilization stages on a gold substrate. Said measurements were carried out in a cell with tripolar configuration using a platinum electrode as counter electrode, a silver/silver chloride reference electrode, and the modified gold electrodes as working electrodes. The electrolyte [Fe(CN)6]K4, containing the Fe^3+/Fe^2+ redox pair, was used in every characterization assay. […] CV and EIS measurements were also performed in each immobilization stage using phosphate buffer (PBS) at pH 7.4 (FIG. 1). […]
# AS PFF = molecular target: T3, AS PFF (Homo sapiens, UniProt P37840); experiment: Comparative binding of immobilized doxycycline hyclate and Doxy-5 to AS aggregates; conditions: AS aggregates 20 ng/ml; polystyrene microplates; FIG. 8
# T3 construct: made in house; host or cells: E. coli BL21
# Protocol: as §1, with “h. The plate is then rinsed again, and 50 μL of the anti-AS antibody diluted to 1 μg/ml in 10% bovine fetal serum (BFS in 10 mM PBS pH 7.4) were added to each well, after which the plate was incubated 1.5 h. The plate was rinsed once more and incubated at 37° C. during 1 h with 50 μL/well of the antibody conjugated with peroxidase diluted to 1 μg/ml in 10% bovine fetal serum.” for “h.”
# Both doxycycline hyclate and Doxy-5 were immobilized on polystyrene microplates and contacted with AS aggregates (PPF) according to the protocol described in Example 4, using a concentration for the AS aggregates of 20 ng/ml. The binding of the AS aggregates to each molecule was determined as described in Example 4 as well.
compound,measurement,setting,value
Cc1ccc2c(c1)sc(-c1ccc(N(C)C)cc1)[n+]2C.[Cl-] [Thioflavin T],binding to amyloid aggregates structures,amyloid aggregates,strong and specific binding
Nc1c(/N=N/c2ccc(-c3ccc(/N=N/c4cc(S(=O)(=O)O)c5ccccc5c4N)cc3)cc2)cc(S(=O)(=O)O)c2ccccc12 [Congo red],binding to amyloid aggregates structures,amyloid aggregates,strong and specific binding
"C[C@H]1c2ccc(N)c(O)c2C(=O)C2=C(O)[C@]3(O)C(=O)C(C(N)=O)=C(O)CC3[C@@H](O)C21 (stereo partly shown) [Doxy-5, 9-amino-4-dedimethylamino doxycycline]",cross-reaction with native (monomeric) AS,fibrillar AS; native AS as negative control,no cross-reaction
same,AS concentrations showing the best differential reactivity between aggregated and monomeric species,fibrillar AS; wells sensitized with Doxy-5,over 30 ng/mL
same,affinity towards fibrillar AS,"fibrillar AS; wells sensitized with Doxy-5, absorbance 450 nm",nanomolar affinity
same,"discrimination between Tau monomer (Taum) and pre-formed fibrils (PFF), signal at 450 nm",Tau aggregates (PFF),higher signal for PFF compared with Taum and PBS
same,electrochemical response of the sensor in the presence of the AS fibers (oxidation peak of voltammogram),"AS fibers; CV, -0.6 V to 0.6 V, 30 mV/seg, Doxy-5 on MPA-SAM gold electrode",clear electrochemical response
same,interference of the AS monomer in CV response,"AS fibers; monomer up to 100 ng/ml, response lower than fibers at 0.1 ng/mL",non-existing interference of the monomer
same,signal for binding to AS PFF,AS PFF,significantly higher
doxycycline hyclate [reference compound],signal for binding to AS PFF,AS PFF,positive signal
